Measured values as given in patent publication US20210130346A1, “Bromodomain Inhibitors” (AbbVie Inc., priority 2017, published 2021).

Biological target: BRD4 (BDI_K57-E168) (Homo sapiens, UniProt O60885)
Assay: TR-FRET bromodomain binding assay, BRD4 first bromodomain (BDI)
Settings: mean Ki; 12 nM His tagged BRD4 (BDI_K57-E168), 100 nM Alexa647 probe; Ki calculated from IC50, probe Kd and probe concentration
Experimental: A time-resolved fluorescence resonance energy transfer (TR-FRET) assay was used to determine the affinities of compounds of the Examples listed in Table 1 for each bromodomain of BRD4. […] An Alexa647-labeled BET-inhibitor was used as the fluorescent probe in the assay.
Compound dilution series were prepared in DMSO via an approximately 3-fold serial dilution. Compound dilutions were added directly into white, low-volume assay plates (Perkin Elmer Proxiplate 384 Plus# 6008280) using a Labcyte Echo in conjunction with Labcyte Access and Thermo Multidrop CombinL robotics. Compounds were then suspended in eight microliters (μL) of assay buffer (20 mM Sodium Phosphate, pH 6.0, 50 mM NaCl, 1 mM Ethylenediaminetetraacetic acid disodium salt dihydrate, 0.01% Triton X-100, 1 mM DL-Dithiothreitol) containing His-tagged bromodomain, Europium-conjugated anti-His antibody (Invitrogen PV5596) and Alexa-647-conjugated probe.
After a one-hour equilibration at room temperature, TR-FRET ratios were determined using an Envision multilabel plate reader (Ex 340, Em 495/520).
TR-FRET data were normalized to the means of 24 no-compound controls (“high”) and 8 controls containing 1 μM un-labeled probe (“low”). Percent inhibition was plotted as a function of compound concentration and the data were fit with the 4 parameter logistic equation to obtain IC50s. Inhibition constants (Ki) were calculated from the IC50s, probe Kd and probe concentration.

Row | Ki | SMILES
1 | 3.42 µM | CN1C(=O)[C@@]2(C[C@H]2c2cn(C)c(=O)c3[nH]c(-c4ccncn4)cc23)c2ccccc21 (racemic) [Example 55, rac-(1R,2S)-1′-methyl-2-[6-methyl-7-oxo-2-(pyrimidin-4-yl)-6,7-dihydro-1H-pyrrolo[2,3-c]pyridin-4-yl]spiro[cyclopropane-1,3′-indol]-2′(1H)-one]
2 | 2.76 µM | CN1C(=O)[C@@]2(C[C@H]2c2cn(C)c(=O)c3[nH]c(-c4ccnnc4)cc23)c2ccccc21 (racemic) [Example 56, rac-(1R,2S)-1′-methyl-2-[6-methyl-7-oxo-2-(pyridazin-4-yl)-6,7-dihydro-1H-pyrrolo[2,3-c]pyridin-4-yl]spiro[cyclopropane-1,3′-indol]-2′(1H)-one]
3 | 7.38 µM | CN1C(=O)[C@@]2(C[C@H]2c2cn(C)c(=O)c3[nH]c(C(=O)NC4CC4)cc23)c2ccc(F)cc21 (racemic) [Example 11, rac-N-cyclopropyl-4-[(1R,2S)-6′-fluoro-1′-methyl-2′-oxo-1′,2′-dihydrospiro[cyclopropane-1,3′-indol]-2-yl]-6-methyl-7-oxo-6,7-dihydro-1H-pyrrolo[2,3-c]pyridine-2-carboxamide]
4 | 0.531 µM | CN1C(=O)[C@@]2(C[C@H]2c2cn(C)c(=O)c3[nH]c(-c4cnn(C)c4)cc23)c2ccccc21 (racemic) [Example 33, rac-(1R,2S)-1′-methyl-2-[6-methyl-2-(1-methyl-1H-pyrazol-4-yl)-7-oxo-6,7-dihydro-1H-pyrrolo[2,3-c]pyridin-4-yl]spiro[cyclopropane-1,3′-indol]-2′(1H)-one]
5 | > 13 µM | CN1C(=O)[C@]2(C[C@@H]2c2cn(C)c(=O)c3[nH]c(-c4ccnc(C(F)(F)F)c4)cc23)c2ccccc21 [Example 52, (1S,2R)-1′-methyl-2-{6-methyl-7-oxo-2-[2-(trifluoromethyl)pyridin-4-yl]-6,7-dihydro-1H-pyrrolo[2,3-c]pyridin-4-yl}spiro[cyclopropane-1,3′-indol]-2′(1H)-one]
6 | 2.95 µM | Cc1ccc2c(c1)N(C)C(=O)[C@@]21C[C@H]1c1cn(C)c(=O)c2[nH]c(C(=O)NC3CC3)cc12 (racemic) [Example 13, rac-N-cyclopropyl-4-[(1R,2S)-1′,6′-dimethyl-2′-oxo-1′,2′-dihydrospiro[cyclopropane-1,3′-indol]-2-yl]-6-methyl-7-oxo-6,7-dihydro-1H-pyrrolo[2,3-c]pyridine-2-carboxamide]
7 | 3.63 µM | CN1C(=O)[C@@]2(C[C@H]2c2cn(C)c(=O)c3[nH]c(C(=O)NC4CC4)cc23)c2ccc(OC(F)(F)F)cc21 (racemic) [Example 15, rac-N-cyclopropyl-6-methyl-4-[(1R,2S)-1′-methyl-2′-oxo-6′-(trifluoromethoxy)-1′,2′-dihydrospiro[cyclopropane-1,3′-indol]-2-yl]-7-oxo-6,7-dihydro-1H-pyrrolo[2,3-c]pyridine-2-carboxamide]
8 | > 13 µM | Cn1cc([C@@H]2C[C@@]23C(=O)N(CC(F)(F)F)c2ccccc23)c2cc(C(=O)NC3CC3)[nH]c2c1=O [Example 25, N-cyclopropyl-6-methyl-7-oxo-4-[(1R,2S)-2′-oxo-′-(2,2,2-trifluoroethyl)-1′,2′-dihydrospiro[cyclopropane-1,3′-indol]-2-yl]-6,7-dihydro-1H-pyrrolo[2,3-c]pyridine-2-carboxamide]
9 | 2.41 µM | CN1C(=O)[C@@]2(C[C@H]2c2cn(C)c(=O)c3[nH]c(C4CN(C(=O)OC(C)(C)C)C4)cc23)c2ccccc21 (racemic) [Example 32, rac-tert-butyl 3-{6-methyl-4-[(1R,2S)-1′-methyl-2′oxo-1′,2′-dihydrospiro[cyclopropane-1,3′-indol]-2-yl]-7-oxo-6,7-dihydro-1H-pyrrolo [2,3-c]pyridin-2-yl}azetidine-1-carboxylate]
10 | > 13 µM | CN1C(=O)[C@@]2(C[C@H]2c2cn(C)c(=O)c3[nH]c(C(=O)Nc4ccccc4)cc23)c2ccccc21 (racemic) [Example 8, rac-6-methyl-4-[(1R,2S)-1′-methyl-2′-oxo-1′,2′-dihydrospiro[cyclopropane-1,3′-indol]-2-yl]-7-oxo-N-phenyl-6,7-dihydro-1H-pyrrolo[2,3-c]pyridine-2-carboxamide]
11 | 4.21 µM | Cn1cc([C@H]2C[C@]23C(=O)N(CC(F)(F)F)c2ccccc23)c2cc(C(=O)NC3CC3)[nH]c2c1=O [Example 24, N-cyclopropyl-6-methyl-7-oxo-4-[(1S,2R)-2′-oxo-′-(2,2,2-trifluoroethyl)-1′,2′-dihydrospiro[cyclopropane-1,3′-indol]-2-yl]-6,7-dihydro-1H-pyrrolo[2,3-c]pyridine-2-carboxamide]
12 | 2.82 µM | CN1C(=O)[C@@]2(C[C@H]2c2cn(C)c(=O)c3[nH]c(-c4ccnc(C(F)(F)F)c4)cc23)c2ccccc21 [Example 53, (1R,2S)-1′-methyl-2-{6-methyl-7-oxo-2-[2-(trifluoromethyl)pyridin-4-yl]-6,7-dihydro-1H-pyrrolo[2,3-c]pyridin-4-yl}spiro[cyclopropane-1,3′-indol]-2′(1H)-one]
13 | 4.68 µM | CN1C(=O)[C@@]2(C[C@H]2c2cn(C)c(=O)c3[nH]c(-c4ccnc(C(F)(F)F)c4)cc23)c2ccccc21 (racemic) [Example 51, rac-(1R,2S)-1′-methyl-2-{6-methyl-7-oxo-2-[2-(trifluoromethyl)pyridin-4-yl]-6,7-dihydro-1H-pyrrolo[2,3-c]pyridin-4-yl}spiro[cyclopropane-1,3′-indol]-2′(1H)-one]
14 | 3.44 µM | CN1C(=O)[C@@]2(C[C@H]2c2cn(C)c(=O)c3[nH]ccc23)c2ccccc21 (racemic) [Example 30, rac-(1R,2S)-1′-methyl-2-(6-methyl-7-oxo-6,7-dihydro-1H-pyrrolo[2,3-c]pyridin-4-yl)spiro[cyclopropane-1,3′-indol]-2′(1H)-one]
15 | 0.811 µM | CN1C(=O)[C@@]2(C[C@H]2c2cn(C)c(=O)c3[nH]c(C4CC4)cc23)c2ccccc21 (racemic) [Example 31, rac-(1R,2S)-2-(2-cyclopropyl-6-methyl-7-oxo-6,7-dihydro-1H-pyrrolo[2,3-c]pyridin-4-yl)-1′-methylspiro[cyclopropane-1,3′-indol]-2′(1H)-one]
16 | > 13 µM | Cc1cc(-c2cc3c([C@H]4C[C@@]45C(=O)N(C)c4ccccc45)cn(C)c(=O)c3[nH]2)on1 (racemic) [Example 40, rac-(1R,2R)-1′-methyl-2-[6-methyl-2-(3-methyl-1,2-oxazol-5-yl)-7-oxo-6,7-dihydro-1H-pyrrolo[2,3-c]pyridin-4-yl]spiro[cyclopropane-1,3′-indol]-2′(1H)-one]
17 | > 13 µM | Cc1nn(C)cc1-c1cc2c([C@@H]3C[C@@]34C(=O)N(C)c3ccccc34)cn(C)c(=O)c2[nH]1 (racemic) [Example 36, rac-(1R,2S)-2-[2-(1,3-dimethyl-1H-pyrazol-4-yl)-6-methyl-7-oxo-6,7-dihydro-1H-pyrrolo[2,3-c]pyridin-4-yl]-1′-methylspiro[cyclopropane-1,3′-indol]-2′(1H)-one]
18 | 1.28 µM | CN1C(=O)[C@@]2(C[C@H]2c2cn(C)c(=O)c3[nH]c(-c4ccncc4)cc23)c2ccccc21 (racemic) [Example 50, rac-(1R,2S)-1′-methyl-2-[6-methyl-7-oxo-2-(pyridin-4-yl)-6,7-dihydro-1H-pyrrolo[2,3-c]pyridin-4-yl]spiro[cyclopropane-1,3′-indol]-2′(1H)-one]
